The results in this text go back to patent US4292321A, “1,3,8-Triazaspirodecane-4-ones, pharmaceutical compositions thereof and method of use thereof” (Warner-Lambert Company, priority 1980, dated 1981).

The target of the assay is T1, dopamine receptor (Bos taurus, UniProt P20288).
T1 construct: from tissue
The experiment in a line: 3H-haloperidol receptor binding assay (HRBA). Particulars: for inhibition at 0.01 µM / inhibition at 0.1 µM / inhibition at 0.001 µM: read-out: inhibition of 3H-haloperidol binding. An excerpt: The compounds of this invention are useful because of their valuable pharmacological properties. […] As with other known neuroleptics, the compounds of this invention readily displace ^3 H-haloperidol from dopamine receptor binding sights in the ^3 H-haloperidol receptor binding assay (HRBA). […] The HRBA screen is described by I. Creese, D. R. Burt and S. H. Snyder, Science 142: 480 (1976) and by B. Seeman, T. Lee, M. Chani-Wong and K. Wong, Nature 261: 717 […].

Structures can show the parent of a compound that is named as a salt. Where two headings read alike, the source gives them in different places.

T1 sequence (P20288 whole entry): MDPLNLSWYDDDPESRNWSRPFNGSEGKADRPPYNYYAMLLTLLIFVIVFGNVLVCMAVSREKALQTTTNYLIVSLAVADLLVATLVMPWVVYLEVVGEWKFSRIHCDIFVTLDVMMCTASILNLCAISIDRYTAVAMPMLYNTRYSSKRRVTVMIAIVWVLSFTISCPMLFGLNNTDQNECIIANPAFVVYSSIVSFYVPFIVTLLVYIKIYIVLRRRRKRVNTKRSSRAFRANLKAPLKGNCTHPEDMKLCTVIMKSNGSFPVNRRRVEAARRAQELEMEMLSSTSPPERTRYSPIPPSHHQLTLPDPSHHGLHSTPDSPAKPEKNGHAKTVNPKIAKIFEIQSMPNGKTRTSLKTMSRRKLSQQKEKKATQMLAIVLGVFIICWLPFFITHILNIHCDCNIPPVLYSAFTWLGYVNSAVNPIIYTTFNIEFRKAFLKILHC

In general, inhibition refers to the percentage by which the read-out fell short of the control. Consider `O=C1NCN(c2ccccc2)C12CCN(CCCN(c1ccc(F)cc1)c1ccc(F)cc1)CC2` [Example 1, 8-[3-(Bis-[4-fluorophenyl]amino)propyl]-1-phenyl-1,3,8-triazaspiro[4,5]decan-4-one hydrobromide], for which the inhibition at 0.01 µM is about 73% and the inhibition at 0.1 µM is about 77%.
For `O=C1NCN(c2ccc(F)cc2)C12CCN(CCCN(c1ccccc1)c1ccccc1)CC2` [Example 2, 8-[3-(Diphenylamino)propyl]-1-(4-fluorophenyl)-1,3,8-triazaspiro[4,5]decan-4-one] the same measures were about 76% and about 85%.
For `Cc1ccc(N2CNC(=O)C23CCN(CCCN(c2ccccc2)c2ccccc2)CC3)cc1` [Example 3, 8-[3-(Diphenylamino)propyl]-1-(4-methylphenyl)-1,3,8-triazaspiro[4,5]decan-4-one] the same measures were about 71% and about 87%.
The corresponding values for `COc1ccc(N2CNC(=O)C23CCN(CCCN(c2ccccc2)c2ccccc2)CC3)cc1` [Example 4, 8-[3-(Diphenylamino)propyl]-1-(4-methoxyphenyl)-1,3,8-triazaspiro[4,5]decan-4-one] are about 67% and about 98%.
Consider `O=C1NCN(c2ccc(F)cc2)C12CCN(CCCN(c1ccc(F)cc1)c1ccc(F)cc1)CC2` [Example 5, 8-[3-[Bis-(4-fluorophenyl)amino]propyl]-1-(4-fluorophenyl)-1,3,8-triazaspiro[4,5]decan-4-one], for which the inhibition at 0.01 µM was about 84% and the inhibition at 0.1 µM is about 100%.
For the compound `O=c1[nH]c2ccccc2n1C1CCN(CCCN(c2ccc(F)cc2)c2ccc(F)cc2)CC1` [Example 6, 1-(1[3-[Bis(4-fluorophenyl)amino]propyl]-4-piperidyl)-1,3-dihydro-2H-benzimidazol-2-one], under “1 n mole concentration”, the inhibition at 0.001 µM is about 50%. Where the note is “10 n moles concentration”, the inhibition at 0.01 µM was about 78%.
In the case of `O=c1[nH]c2ccccc2n1C1=CCN(CCCN(c2ccc(F)cc2)c2ccc(F)cc2)CC1` [Example 7, 1-[1-[3-[Bis(4-fluorophenyl)amino]propyl]-1,2,3,6-tetrahydro-4-pyridinyl]-1,3-dihydro-2H-benzimidazol-2-one hydrochloride], the inhibition at 0.01 µM is about 22% and the inhibition at 0.1 µM was about 67%.
Consider `Fc1ccc(N(CCCN2CCC(n3c(=S)[nH]c4ccccc43)CC2)c2ccc(F)cc2)cc1` [Example 8, 1-[1-(3-[Bis(4-fluorophenyl)amino]propyl)-4-piperidinyl]-1,3-dihydro-2H-benzimidazole-2-thione], for which the inhibition at 0.01 µM (10 n moles concentration) is about 28%. The inhibition at 0.1 µM (100 n moles concentration) was about 89%.
With `O=c1[nH]c2ccccc2n1C1CCN(CCCN(c2ccccc2)c2ccccc2)CC1` [Example 9, 1-[1-(3-(Diphenylamino]propyl)-4-piperidinyl]-1,3-dihydro-2H-benzimidazol-2-one hydrochloride], the inhibition at 0.01 µM was about 68% and the inhibition at 0.1 µM is about 91%.
`O=c1[nH]c2ccccc2n1C1CCN(CCCN(c2ccccc2)c2ccc([N+](=O)[O-])cc2)CC1` [Example 10, 1,3-Dihydro-1-[1-(3-[(4-nitrophenyl)phenylamino]propyl)-4-piperidinyl]-2H-benzimidazol-2-one hydrochloride]: the inhibition at 0.01 µM was about 17% and the inhibition at 0.1 µM is about 75%.
As to `Cc1cccc(N(CCCN2CCC(n3c(=O)[nH]c4ccccc43)CC2)c2ccccc2)c1` [Example 11, 1,3-Dihydro-1-[1-(3-[(3-methylphenyl)phenylamino]propyl-4-piperidinyl]-2H-benzimidazol-2-one hydrochloride], the inhibition at 0.01 µM (10 n moles concentration) was about 61%. The inhibition at 0.1 µM (100 n moles concentration) was about 91%.
In the case of `Cc1cc2[nH]c(=O)n(C3CCN(CCCN(c4ccccc4)c4ccccc4)CC3)c2cc1C` [Example 13, 1-[1-(3-[Diphenylamino]propyl)-4-piperidiyl]-1,3-dihydro-5,6-dimethyl-2H-benzimidazol-2-one], where the note is “10 n moles concentration”, the inhibition at 0.01 µM is about 53%. Moreover, the inhibition at 0.1 µM (100 n moles concentration) was about 93%.
For the compound `O=c1[nH]c2ccccc2n1C1CCN(CCCN(c2ccc(F)cc2)c2ccccc2F)CC1` [Example 14, 1,3-Dihydro-1-[1-[3-[(4-fluorophenyl)-(2-fluorophenyl)amino]propyl]-4-piperidinyl]-2H-benzimidazol-2-one], the inhibition at 0.001 µM (1 n mole concentration) is about 56%. Further, the inhibition at 0.01 µM (10 n moles concentration) is about 92%. Besides, the inhibition at 0.1 µM (100 n moles concentration) was about 100%.
`O=c1[nH]c2ccccc2n1C1CCN(CCCN(c2ccccc2)c2ccc(F)cc2)CC1` [Example 15, 1,3-Dihydro-1-[1-[3-[(4-fluorophenyl)phenylamino]propyl]-4-piperidinyl]-2H-benzimidazol-2-one]: the inhibition at 0.01 µM (10 n moles concentration) is about 74%. Also, for the setting “100 n moles concentration”, the inhibition at 0.1 µM was about 100%.
With `Cc1cc2c(cc1C)n(C1CCN(CCCN(c3ccccc3)c3ccccc3)CC1)c(=O)n2C` [Example 16, 1-[1-([3-Diphenylamino]propyl)-4-piperidinyl]-1,3-dihydro-3,5,6-trimethyl-2H-benzimidazol-2-one butenedioate], the inhibition at 0.01 µM (10 n moles concentration) is about 6%. In addition, for the setting “100 n moles concentration”, the inhibition at 0.1 µM is about 60%.
Take `Cc1cc2[nH]c(=O)n(C3CCN(CCCN(c4ccc(F)cc4)c4ccc(F)cc4)CC3)c2cc1C` [Example 17, 1-[1-[3-[Bis-(4-fluorophenyl)amino]propyl]-4-piperidyl]-1,3-dihydro-5,6-dimethyl-2H-benzimidazol-2-one]: for the setting “1 n mole concentration”, the inhibition at 0.001 µM is about 29%. Moreover, the inhibition at 0.01 µM (10 n moles concentration) is about 85%. Moreover, the inhibition at 0.1 µM (100 n moles concentration) was about 100%.
Turning to `OC1(c2cccc(F)c2)CCN(CCCN(c2ccccc2)c2ccccc2)CC1` [Example 18, 1-[3-(Diphenylamino)propyl]-4-(3-fluorophenyl)-4-piperidinol ethanedioate], the inhibition at 0.01 µM was about 23% and the inhibition at 0.1 µM is about 83%.
With `OC1(c2ccc(F)cc2)CCN(CCCN(c2ccc(F)cc2)c2ccc(F)cc2)CC1` [Example 19, 4-(4-Fluorophenyl)-1-(3-[bis(4-fluorophenyl)amino]propyl)-4-piperidinol hydrochloride], the inhibition at 0.001 µM is about 25% and the inhibition at 0.01 µM is about 82%.
Turning to `OC1(c2ccc(Cl)cc2)CCN(CCCN(c2ccc(F)cc2)c2ccc(F)cc2)CC1` [Example 20, 1-(3-[Bis(4-fluorophenyl)amino]propyl)-4-(4-chlorophenyl)-4-piperidinol ethanedioate], the inhibition at 0.01 µM was about 74% and the inhibition at 0.1 µM is about 100%.
As for `C1=C(Oc2ccccc2)CCN(CCCN(c2ccccc2)c2ccccc2)C1` [Example 21, 3,6-Dihydro-4-phenoxy-N,N-diphenyl-1(2H)-pyridinepropanamine ethanedioate.], the inhibition at 0.01 µM (10 n moles concentration) is about 8%. Besides, the inhibition at 0.1 µM (100 n moles concentration) is about 48%.
For the compound `c1ccc(OC2CCN(CCCN(c3ccccc3)c3ccccc3)CC2)cc1` [Example 22, 4-Phenoxy-N,N-diphenyl-1-piperidinepropanamine ethanedioate], the inhibition at 0.01 µM was about 7% and the inhibition at 0.1 µM was about 59%.
As to `FC(F)(F)c1cccc(OC2=CCN(CCCN(c3ccccc3)c3ccccc3)CC2)c1` [Example 23, 3,6-Dihydro-N,N-diphenyl-4-[(3-trifluoromethyl)phenoxy]-1(2H)-pyridinepropanamine ethanedioate], under “10 n moles concentration”, the inhibition at 0.01 µM was about 6%. The inhibition at 0.1 µM (100 n moles concentration) is about 24%.
As to `FC(F)(F)c1cccc(OC2CCN(CCCN(c3ccccc3)c3ccccc3)CC2)c1.O=C(O)C(=O)O` [Example 24, N,N-diphenyl-4-[3-(trifluoromethyl)phenoxy]-1-piperidinepropanamine ethanedioate], the inhibition at 0.1 µM is about 8%. For the same compound, the “inhibition of 3H-haloperidol binding” value (10 n moles concentration) is reported as “no inhibition”.
On to `Fc1ccc(OC2=CCN(CCCN(c3ccc(F)cc3)c3ccc(F)cc3)CC2)cc1` [Example 25, 4-(4-Fluorophenoxy)-N,N-bis(4-fluorophenyl)-1,2,3,6-tetrahydro-1-pyridinepropanamine-d-2,3-dihydroxybutanedioate], for which, where the note is “1 n mole concentration”, the “inhibition of 3H-haloperidol binding” value was “no inhibition”. Besides, the inhibition at 0.01 µM (10 n moles concentration) was about 43%.
For `Clc1ccc(OC2=CCN(CCCN(c3ccccc3)c3ccccc3)CC2)cc1Cl.O=C(O)C(=O)O` [Example 26, 4-(3,4-Dichlorophenoxy)-3,6-dihydro-N,N-diphenyl-1(2H)-pyridinepropanamine ethanedioate], the inhibition at 0.1 µM is about 26%. In addition, the “inhibition of 3H-haloperidol binding” value (10 n moles concentration) is given as “no inhibition”.
Take `Fc1ccc(N2CCN(CCCN(c3ccccc3)c3ccccc3)CC2)cc1` [Example 31, 4-(4-Fluorophenyl)-N,N-diphenyl-1-piperazinepropanamine]: the “inhibition of 3H-haloperidol binding” value (10 n moles concentration) is on record as “no inhibition”. Moreover, the inhibition at 0.1 µM (100 n moles concentration) is about 12%.
Consider `c1ccc(CN2CCN(CCCN(c3ccccc3)c3ccccc3)CC2)cc1` [Example 32, N,N-diphenyl-4-(phenylmethyl)-1-piperazinepropanamine ethanedioate], for which the inhibition at 0.01 µM is about 16% and the inhibition at 0.1 µM is about 33%.
Consider `CC(C)Sc1ccccc1N1CCN(CCCN(c2ccccc2)c2ccccc2)CC1.Cl` [Example 33, 4-[2-[(1-Methylethyl)thio]phenyl]-N,N-diphenyl-1-piperazinepropanamine hydrochloride], for which the inhibition at 0.1 µM is about 28%. For the setting “10 n moles concentration”, the “inhibition of 3H-haloperidol binding” value is given as “no inhibition”.
Take `CCCSc1ccccc1N1CCN(CCCN(c2ccccc2)c2ccccc2)CC1` [Example 34, N,N-diphenyl-4-[2-(propylthio)phenyl]-1-piperazinepropanamine ethanedioate]: the inhibition at 0.01 µM is about 6% and the inhibition at 0.1 µM was about 64%.
